Laboratory results reported in ChEMBL document CHEMBL1201862, “PubChem BioAssay data set” (2004).
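Interpolation was linear, between the two tested concentrations surrounding the appropriate level; five concentrations were tested over 48 hours in 96-well plates. GI50 = concentration required for 50% inhibition of growth.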 Active and inactive are the calls of the source. Rule as the data show it: active = GI50 up to about 1.1 µM and inactive = higher.

Tests used:
Assay in all cases: NCI tumour cell line growth inhibition, 48 h
786-0 = test system: 786-0
A498 = test system: A498
A549 = test system: A549
ACHN = test system: ACHN
BT-549 = test system: BT-549
CAKI-1 = test system: CAKI-1
CCRF-CEM = test system: CCRF-CEM
COLO 205 = test system: COLO 205
DU-145 = test system: DU-145
EKVX = test system: EKVX
HCC 2998 = test system: HCC 2998
HCT-116 = test system: HCT-116
HCT-15 = test system: HCT-15
HL-60 = test system: HL-60
HOP-62 = test system: HOP-62
HOP-92 = test system: HOP-92
HT-29 = test system: HT-29
Hs-578T = test system: Hs-578T
IGROV-1 = test system: IGROV-1
K562 = test system: K562
KM12 = test system: KM12
LOX IMVI = test system: LOX IMVI
M14 = test system: M14
MCF7 = test system: MCF7
MDA-MB-231 = test system: MDA-MB-231
MDA-MB-435 = test system: MDA-MB-435
MDA-N = test system: MDA-N
MOLT-4 = test system: MOLT-4
Malme-3M = test system: Malme-3M
NCI-H226 = test system: NCI-H226
NCI-H23 = test system: NCI-H23
NCI-H460 = test system: NCI-H460
NCI-H522 = test system: NCI-H522
NCI/ADR-RES = test system: NCI/ADR-RES
OVCAR-3 = test system: OVCAR-3
OVCAR-4 = test system: OVCAR-4
OVCAR-5 = test system: OVCAR-5
OVCAR-8 = test system: OVCAR-8
PC-3 = test system: PC-3
RPMI-8226 = test system: RPMI-8226
RXF 393 = test system: RXF 393
SF-268 = test system: SF-268
SF-295 = test system: SF-295
SF-539 = test system: SF-539
SK-MEL-28 = test system: SK-MEL-28
SK-MEL-2 = test system: SK-MEL-2
SK-MEL-5 = test system: SK-MEL-5
SK-OV-3 = test system: SK-OV-3
SN12C = test system: SN12C
SNB-19 = test system: SNB-19
SNB-75 = test system: SNB-75
SR = test system: SR
SW-620 = test system: SW-620
T47D = test system: T47D
TK-10 = test system: TK-10
U-251 = test system: U-251
UACC-257 = test system: UACC-257
UACC-62 = test system: UACC-62
UO-31 = test system: UO-31

SMILES: CN(C)P(=O)(Oc1ccc(CC(NC(=O)OCc2ccccc2)C(=O)OCc2ccccc2)cc1)N(C)C (stereo not drawn)
- GI50 (786-0): 4.94 µM (inactive)
- GI50 (A498): 19.4 µM (inactive)
- GI50 (A549): 19.2 µM (inactive)
- GI50 (ACHN): 18.5 µM (inactive)
- GI50 (BT-549): 17.1 µM (inactive)
- GI50 (CAKI-1): 17.6 µM (inactive)
- GI50 (CCRF-CEM): 2.43 µM (inactive)
- GI50 (COLO 205): 20.9 µM (inactive)
- GI50 (DU-145): 15.7 µM (inactive)
- GI50 (EKVX): 15.7 µM (inactive)
- GI50 (HCC 2998): 18.3 µM (inactive)
- GI50 (HCT-116): 15.9 µM (inactive)
- GI50 (HCT-15): 17.4 µM
- GI50 (HL-60): 13.2 µM (inactive)
- GI50 (HOP-62): 17.1 µM (inactive)
- GI50 (HOP-92): 17.8 µM (inactive)
- GI50 (HT-29): 10.1 µM (inactive)
- GI50 (Hs-578T): 24.4 µM (inactive)
- GI50 (IGROV-1): 17.2 µM (inactive)
- GI50 (K562): 22.7 µM (inactive)
- GI50 (KM12): 20 µM (inactive)
- GI50 (LOX IMVI): 16 µM (inactive)
- GI50 (M14): 13.4 µM (inactive)
- GI50 (MCF7): 12.4 µM (inactive)
- GI50 (MDA-MB-231): 17.5 µM (inactive)
- GI50 (MDA-MB-435): 12.2 µM (inactive)
- GI50 (MDA-N): 16.8 µM (inactive)
- GI50 (MOLT-4): 3.35 µM (inactive)
- GI50 (Malme-3M): 17.3 µM (inactive)
- GI50 (NCI-H226): 26.4 µM (inactive)
- GI50 (NCI-H23): 14.1 µM (inactive)
- GI50 (NCI-H460): 21 µM (inactive)
- GI50 (NCI-H522): 13.9 µM (inactive)
- GI50 (NCI/ADR-RES): 17.9 µM (inactive)
- GI50 (OVCAR-3): 3.43 µM (inactive)
- GI50 (OVCAR-4): 20.7 µM (inactive)
- GI50 (OVCAR-5): 20 µM (inactive)
- GI50 (OVCAR-8): 15.9 µM (inactive)
- GI50 (PC-3): 15.2 µM (inactive)
- GI50 (RPMI-8226): 2.77 µM (inactive)
- GI50 (RXF 393): 17.5 µM (inactive)
- GI50 (SF-268): 13.4 µM (inactive)
- GI50 (SF-295): 18.2 µM (inactive)
- GI50 (SF-539): 22.3 µM (inactive)
- GI50 (SK-MEL-28): 16.8 µM (inactive)
- GI50 (SK-MEL-2): 15.6 µM (inactive)
- GI50 (SK-MEL-5): 20.7 µM (inactive)
- GI50 (SK-OV-3): 17.8 µM (inactive)
- GI50 (SN12C): 15.1 µM (inactive)
- GI50 (SNB-19): 20 µM (inactive)
- GI50 (SNB-75): 17.2 µM (inactive)
- GI50 (SR): 4.56 µM (inactive)
- GI50 (SW-620): 18.2 µM (inactive)
- GI50 (T47D): 21 µM (inactive)
- GI50 (TK-10): 21.7 µM (inactive)
- GI50 (U-251): 13.8 µM (inactive)
- GI50 (UACC-257): 21.4 µM (inactive)
- GI50 (UACC-62): 15.2 µM (inactive)
- GI50 (UO-31): 18.5 µM (inactive)

SMILES: CC(C)=NOC(=O)CNC(=O)C(Cc1ccccc1)NC(=O)C(C)NC(=O)OC(C)(C)C (stereo not drawn)
- GI50 (786-0): > 100 µM (inactive)
- GI50 (A498): > 100 µM (inactive)
- GI50 (A549): > 100 µM (inactive)
- GI50 (ACHN): > 100 µM (inactive)
- GI50 (BT-549): > 100 µM (inactive)
- GI50 (CAKI-1): > 100 µM (inactive)
- GI50 (CCRF-CEM): > 100 µM (inactive)
- GI50 (COLO 205): > 100 µM (inactive)
- GI50 (DU-145): > 100 µM (inactive)
- GI50 (EKVX): > 100 µM (inactive)
- GI50 (HCC 2998): > 100 µM (inactive)
- GI50 (HCT-116): > 100 µM (inactive)
- GI50 (HCT-15): > 100 µM
- GI50 (HL-60): > 100 µM (inactive)
- GI50 (HOP-62): > 100 µM (inactive)
- GI50 (HOP-92): > 100 µM (inactive)
- GI50 (HT-29): > 100 µM (inactive)
- GI50 (Hs-578T): > 100 µM (inactive)
- GI50 (IGROV-1): > 100 µM (inactive)
- GI50 (K562): > 100 µM (inactive)
- GI50 (KM12): > 100 µM (inactive)
- GI50 (LOX IMVI): > 100 µM (inactive)
- GI50 (M14): > 100 µM (inactive)
- GI50 (MCF7): > 100 µM (inactive)
- GI50 (MDA-MB-231): > 100 µM (inactive)
- GI50 (MDA-MB-435): > 100 µM (inactive)
- GI50 (MDA-N): > 100 µM (inactive)
- GI50 (MOLT-4): > 100 µM (inactive)
- GI50 (Malme-3M): > 100 µM (inactive)
- GI50 (NCI-H226): > 100 µM (inactive)
- GI50 (NCI-H23): > 100 µM (inactive)
- GI50 (NCI-H460): > 100 µM (inactive)
- GI50 (NCI-H522): > 100 µM (inactive)
- GI50 (NCI/ADR-RES): > 100 µM (inactive)
- GI50 (OVCAR-3): > 100 µM (inactive)
- GI50 (OVCAR-4): > 100 µM (inactive)
- GI50 (OVCAR-5): > 100 µM (inactive)
- GI50 (OVCAR-8): > 100 µM (inactive)
- GI50 (PC-3): > 100 µM (inactive)
- GI50 (RPMI-8226): > 100 µM (inactive)
- GI50 (RXF 393): > 100 µM (inactive)
- GI50 (SF-268): > 100 µM (inactive)
- GI50 (SF-295): > 100 µM (inactive)
- GI50 (SF-539): > 100 µM (inactive)
- GI50 (SK-MEL-28): > 100 µM (inactive)
- GI50 (SK-MEL-2): > 100 µM (inactive)
- GI50 (SK-MEL-5): > 100 µM (inactive)
- GI50 (SK-OV-3): > 100 µM (inactive)
- GI50 (SN12C): > 100 µM (inactive)
- GI50 (SNB-19): > 100 µM (inactive)
- GI50 (SNB-75): > 100 µM (inactive)
- GI50 (SR): > 100 µM (inactive)
- GI50 (SW-620): > 100 µM (inactive)
- GI50 (T47D): > 100 µM (inactive)
- GI50 (TK-10): > 100 µM (inactive)
- GI50 (U-251): > 100 µM (inactive)
- GI50 (UACC-257): > 100 µM (inactive)
- GI50 (UACC-62): > 100 µM (inactive)
- GI50 (UO-31): > 100 µM (inactive)
